The source made the active and inactive calls.
Legend:
[1] = THP-1 cell cytotoxicity, dose response, cytotoxicity control for Vif-APOBEC3G degradation inhibitor project, THP-1 cells (AID 1117359); assay type: functional; conditions: Human immunodeficiency virus 1, THP-1
[2] = molecular target: T1, E3 ubiquitin-protein ligase XIAP (Homo sapiens, UniProt P98170); assay: XIAP antagonists, biochemical, IAP family, fluorescence polarization (AID 1018); assay type: functional
[3] = molecular target: T1, E3 ubiquitin-protein ligase XIAP; assay: Counter Screen using XIAP-Bir3 for Chemical Antagonists of Bir1/2 domains of IAP-family anti-apoptotic proteins. [Related pubchem assays (depositor defined):AID1018, AID1449, AID1514, AID1638, AID1749, AID1750, AID488957, AID488963]
Cytochrome P450 1A2 = molecular target: T2, Cytochrome P450 1A2 (Homo sapiens, UniProt P05177);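 also: PubChem cytochrome P450 panel assay, CYP1A2 panel member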
T2 sequence (P05177 whole entry): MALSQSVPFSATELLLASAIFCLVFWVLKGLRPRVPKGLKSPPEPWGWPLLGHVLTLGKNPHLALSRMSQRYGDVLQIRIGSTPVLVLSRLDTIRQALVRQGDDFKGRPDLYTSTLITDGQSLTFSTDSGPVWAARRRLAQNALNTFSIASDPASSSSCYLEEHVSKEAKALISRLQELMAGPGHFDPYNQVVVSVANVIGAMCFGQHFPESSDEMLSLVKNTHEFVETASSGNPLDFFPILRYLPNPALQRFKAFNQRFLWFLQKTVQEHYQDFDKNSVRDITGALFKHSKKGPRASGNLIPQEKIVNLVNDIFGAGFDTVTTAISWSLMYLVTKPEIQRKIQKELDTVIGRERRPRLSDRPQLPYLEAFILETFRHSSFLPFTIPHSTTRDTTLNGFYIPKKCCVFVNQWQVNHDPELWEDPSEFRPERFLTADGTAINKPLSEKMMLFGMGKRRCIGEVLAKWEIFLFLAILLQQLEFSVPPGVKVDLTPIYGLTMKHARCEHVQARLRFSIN

Cytochrome P450 2C9 [4] = molecular target: T3, Cytochrome P450 2C9 (Homo sapiens, UniProt P11712)
T3 sequence (P11712 whole entry): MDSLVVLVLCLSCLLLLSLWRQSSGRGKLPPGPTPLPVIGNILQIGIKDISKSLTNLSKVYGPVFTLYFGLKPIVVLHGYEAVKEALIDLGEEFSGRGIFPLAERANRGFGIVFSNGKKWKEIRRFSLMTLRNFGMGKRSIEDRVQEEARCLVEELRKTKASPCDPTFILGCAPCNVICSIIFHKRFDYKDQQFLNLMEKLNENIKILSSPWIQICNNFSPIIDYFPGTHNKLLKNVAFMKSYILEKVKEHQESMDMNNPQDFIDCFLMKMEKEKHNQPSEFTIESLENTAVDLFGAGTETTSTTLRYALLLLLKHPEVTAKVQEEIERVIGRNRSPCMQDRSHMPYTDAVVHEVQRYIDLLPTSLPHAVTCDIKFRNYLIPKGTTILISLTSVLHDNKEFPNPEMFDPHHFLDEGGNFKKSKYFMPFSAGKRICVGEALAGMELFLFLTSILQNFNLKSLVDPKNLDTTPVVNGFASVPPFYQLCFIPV

Cytochrome P450 2C19 = Cytochrome P450 2C19 (Homo sapiens, UniProt P33261); assay: Cytochrome panel assay with activity outcomes. Panel member name: p450-cyp2c19 Compounds with AC50 equal or less than 10 uM are considered active; assay type: functional; conditions: read-out: AC50
Cytochrome P450 2C19, sequence (P33261 whole entry): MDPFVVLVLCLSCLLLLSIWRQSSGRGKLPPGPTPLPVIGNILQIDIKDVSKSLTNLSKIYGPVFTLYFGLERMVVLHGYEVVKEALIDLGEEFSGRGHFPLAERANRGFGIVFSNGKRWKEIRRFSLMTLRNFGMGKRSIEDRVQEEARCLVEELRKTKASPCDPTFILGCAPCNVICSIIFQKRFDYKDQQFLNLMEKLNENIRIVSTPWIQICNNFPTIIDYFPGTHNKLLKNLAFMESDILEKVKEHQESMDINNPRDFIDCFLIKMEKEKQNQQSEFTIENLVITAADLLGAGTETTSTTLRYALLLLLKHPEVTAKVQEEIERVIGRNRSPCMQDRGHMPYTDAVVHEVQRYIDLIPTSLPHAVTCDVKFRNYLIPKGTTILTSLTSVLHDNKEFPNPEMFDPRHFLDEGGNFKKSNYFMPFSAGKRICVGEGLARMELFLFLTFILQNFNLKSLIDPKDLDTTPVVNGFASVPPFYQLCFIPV

Cytochrome P450 3A4 [5] = molecular target: T4, Cytochrome P450 3A4 (Homo sapiens, UniProt P08684); conditions: Potency
T4 sequence (P08684 whole entry): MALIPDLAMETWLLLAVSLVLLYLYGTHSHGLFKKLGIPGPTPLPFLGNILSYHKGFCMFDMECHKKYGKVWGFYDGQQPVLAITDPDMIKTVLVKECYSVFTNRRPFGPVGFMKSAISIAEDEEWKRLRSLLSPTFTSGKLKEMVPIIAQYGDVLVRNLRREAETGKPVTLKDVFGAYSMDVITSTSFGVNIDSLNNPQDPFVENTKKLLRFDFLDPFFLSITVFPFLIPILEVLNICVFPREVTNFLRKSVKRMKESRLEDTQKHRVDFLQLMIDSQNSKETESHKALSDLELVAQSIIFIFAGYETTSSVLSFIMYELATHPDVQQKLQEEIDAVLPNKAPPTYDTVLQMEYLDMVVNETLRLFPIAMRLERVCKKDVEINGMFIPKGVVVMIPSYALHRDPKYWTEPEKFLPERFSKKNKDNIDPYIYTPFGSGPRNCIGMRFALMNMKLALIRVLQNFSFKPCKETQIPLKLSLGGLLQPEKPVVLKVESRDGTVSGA

[6] = A cytotoxicity screen of small molecule inhibitors of the PhoP region in Salmonella typhi identified in the primary screen. [Related pubchem assays: 1850, 1864, 1985 ]; assay type: functional
cells [7] = assay type: functional
[8] = molecular target: Glyceraldehyde-3-phosphate dehydrogenase (Homo sapiens, UniProt P04406)
[9] = inhibitors of intracellular T. cruzi replication, confirmation, NIH3T3 host cells, beta-gal luminescence (AID 2044); assay type: functional, cell-based;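 also: intracellular parasites grown in NIH/3T3 mouse fibroblasts as host cells; luminescent beta-galactosidase reporter signal from transgenic T. cruzi replicating inside host cells; inhibitors lower the luminescence signal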
INS1 = assay: beta cell apoptosis inhibitors, cytokine rescue, dose response, luminescence, retest (AID 449756); assay type: functional, cell-based; conditions: Rattus norvegicus;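 also: cell death triggered by IL-1 beta plus TNF-alpha plus IFN-gamma mixture; protective hits raise ATP signal compared with cytokine alone wells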
[10] = cytotoxicity toward NIH3T3 fibroblasts, dose response, counter-screen, cell-based, ATP luminescence, mouse fibroblasts (AID 2010); assay type: functional;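 also: cells exposed to compound for about 90 hours before reading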
cells [11] = assay type: functional, cell-based
cells [12] = assay type: functional, cell-based; remark: listed apart in the source
[13] = molecular target: T5, Carboxy-terminal domain RNA polymerase II polypeptide A small phosphatase 1 (Homo sapiens, UniProt Q9GZU7); assay: inhibitors of CTDSP1, concentration-response testing, biochemical assay, absorbance-based, actives from ultra-high-throughput screening (AID 540297); assay type: functional
T5 sequence (Q9GZU7 whole entry): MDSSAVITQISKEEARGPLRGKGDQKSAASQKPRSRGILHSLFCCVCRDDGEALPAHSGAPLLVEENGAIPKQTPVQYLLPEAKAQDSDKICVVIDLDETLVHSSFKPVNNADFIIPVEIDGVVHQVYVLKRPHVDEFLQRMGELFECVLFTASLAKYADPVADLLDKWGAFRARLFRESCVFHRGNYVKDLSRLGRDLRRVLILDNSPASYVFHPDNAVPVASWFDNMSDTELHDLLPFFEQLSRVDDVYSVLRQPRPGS

[14] = molecular target: Voltage-dependent T-type calcium channel subunit alpha-1H (Homo sapiens, UniProt O95180); assay type: functional;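 also: channel activity triggered by adding a high calcium stimulation buffer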
Voltage-dependent T-type calcium channel subunit alpha-1H, sequence (O95180 whole entry): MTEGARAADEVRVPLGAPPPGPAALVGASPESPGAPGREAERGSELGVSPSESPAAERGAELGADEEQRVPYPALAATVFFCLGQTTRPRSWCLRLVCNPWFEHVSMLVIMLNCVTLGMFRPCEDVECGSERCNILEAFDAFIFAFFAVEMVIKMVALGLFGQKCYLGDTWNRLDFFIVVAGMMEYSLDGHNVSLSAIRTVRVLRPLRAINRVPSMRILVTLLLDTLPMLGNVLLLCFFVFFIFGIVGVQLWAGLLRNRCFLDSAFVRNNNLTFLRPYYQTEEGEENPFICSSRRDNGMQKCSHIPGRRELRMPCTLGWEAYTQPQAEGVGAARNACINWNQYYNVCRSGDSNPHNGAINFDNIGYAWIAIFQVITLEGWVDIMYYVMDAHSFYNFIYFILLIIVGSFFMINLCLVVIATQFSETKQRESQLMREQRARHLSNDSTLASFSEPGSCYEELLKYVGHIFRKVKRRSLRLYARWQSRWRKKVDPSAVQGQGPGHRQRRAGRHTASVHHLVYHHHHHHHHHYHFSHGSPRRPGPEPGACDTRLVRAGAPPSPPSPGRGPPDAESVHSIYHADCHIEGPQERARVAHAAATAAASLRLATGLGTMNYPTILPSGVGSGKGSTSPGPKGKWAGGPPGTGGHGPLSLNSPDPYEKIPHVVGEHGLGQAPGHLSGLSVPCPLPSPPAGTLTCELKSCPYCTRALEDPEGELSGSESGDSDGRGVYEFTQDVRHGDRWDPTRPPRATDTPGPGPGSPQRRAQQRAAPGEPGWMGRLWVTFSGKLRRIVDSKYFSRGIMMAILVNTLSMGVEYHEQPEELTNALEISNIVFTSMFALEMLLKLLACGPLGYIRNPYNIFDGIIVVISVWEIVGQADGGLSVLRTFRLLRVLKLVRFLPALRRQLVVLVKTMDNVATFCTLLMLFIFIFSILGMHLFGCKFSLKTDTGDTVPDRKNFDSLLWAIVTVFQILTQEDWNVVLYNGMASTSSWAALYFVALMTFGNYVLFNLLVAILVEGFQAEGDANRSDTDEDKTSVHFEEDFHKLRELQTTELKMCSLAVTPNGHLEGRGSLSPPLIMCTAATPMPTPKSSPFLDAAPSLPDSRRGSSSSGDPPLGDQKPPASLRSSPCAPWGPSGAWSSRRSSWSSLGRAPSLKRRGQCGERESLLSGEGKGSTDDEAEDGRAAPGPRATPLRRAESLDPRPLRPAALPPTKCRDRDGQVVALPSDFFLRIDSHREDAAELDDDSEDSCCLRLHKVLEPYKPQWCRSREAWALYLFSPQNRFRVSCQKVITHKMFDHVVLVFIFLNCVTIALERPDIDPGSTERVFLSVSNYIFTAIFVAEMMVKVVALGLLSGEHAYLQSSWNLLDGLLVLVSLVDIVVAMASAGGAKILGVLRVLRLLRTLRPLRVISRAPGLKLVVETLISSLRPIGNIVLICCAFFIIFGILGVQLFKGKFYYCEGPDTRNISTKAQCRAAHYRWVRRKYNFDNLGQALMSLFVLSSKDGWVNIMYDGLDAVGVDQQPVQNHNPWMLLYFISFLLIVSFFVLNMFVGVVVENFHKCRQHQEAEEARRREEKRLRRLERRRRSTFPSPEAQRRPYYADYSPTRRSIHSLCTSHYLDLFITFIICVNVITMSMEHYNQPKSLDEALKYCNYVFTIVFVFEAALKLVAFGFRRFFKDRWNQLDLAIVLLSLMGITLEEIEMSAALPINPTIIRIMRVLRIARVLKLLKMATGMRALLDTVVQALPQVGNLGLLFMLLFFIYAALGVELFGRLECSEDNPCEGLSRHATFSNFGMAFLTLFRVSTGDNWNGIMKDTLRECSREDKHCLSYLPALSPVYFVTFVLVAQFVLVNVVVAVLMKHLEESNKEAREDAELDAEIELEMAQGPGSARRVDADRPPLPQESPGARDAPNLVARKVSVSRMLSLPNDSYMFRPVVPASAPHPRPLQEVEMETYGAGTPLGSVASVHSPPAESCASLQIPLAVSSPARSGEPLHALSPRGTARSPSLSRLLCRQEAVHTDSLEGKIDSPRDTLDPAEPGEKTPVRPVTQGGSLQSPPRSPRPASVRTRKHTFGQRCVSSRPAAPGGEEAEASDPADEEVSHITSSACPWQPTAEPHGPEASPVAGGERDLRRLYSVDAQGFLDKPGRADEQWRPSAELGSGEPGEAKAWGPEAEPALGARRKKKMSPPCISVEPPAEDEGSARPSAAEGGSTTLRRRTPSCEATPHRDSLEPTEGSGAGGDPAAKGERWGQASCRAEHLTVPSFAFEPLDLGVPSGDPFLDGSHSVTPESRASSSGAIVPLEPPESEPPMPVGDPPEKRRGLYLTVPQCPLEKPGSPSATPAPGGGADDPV

Cytochrome P450 2C9 [15] = molecular target: T3, Cytochrome P450 2C9; remark: listed apart in the source
[16] = HEp-2 cell cytotoxicity, dose response, cytotoxicity control for RSV inhibitor project, HTS (AID 2410); assay type: functional; conditions: human respiratory syncytial virus
Cytochrome P450 2D6 = Cytochrome P450 2D6 (Homo sapiens, UniProt P10635);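 also: CYP2D6 member of a cytochrome P450 panel assay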
Cytochrome P450 2D6, sequence (P10635 whole entry): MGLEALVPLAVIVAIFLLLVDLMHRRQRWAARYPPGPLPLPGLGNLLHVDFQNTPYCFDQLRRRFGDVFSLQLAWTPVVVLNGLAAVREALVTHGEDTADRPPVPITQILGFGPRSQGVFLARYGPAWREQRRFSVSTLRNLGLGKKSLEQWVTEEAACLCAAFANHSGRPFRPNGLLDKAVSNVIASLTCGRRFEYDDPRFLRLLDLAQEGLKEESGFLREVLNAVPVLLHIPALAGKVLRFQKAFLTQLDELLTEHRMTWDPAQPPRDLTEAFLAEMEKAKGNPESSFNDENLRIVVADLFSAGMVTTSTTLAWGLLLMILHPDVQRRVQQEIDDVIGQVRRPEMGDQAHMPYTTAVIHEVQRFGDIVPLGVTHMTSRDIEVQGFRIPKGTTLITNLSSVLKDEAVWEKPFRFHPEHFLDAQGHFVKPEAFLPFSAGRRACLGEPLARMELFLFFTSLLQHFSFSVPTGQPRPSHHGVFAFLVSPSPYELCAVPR

Cytochrome P450 3A4 [17] = molecular target: T4, Cytochrome P450 3A4
[18] = inhibitors of clade B AD8 Env fusion, dose response, cell-based, cherry-pick (AID 652062); assay type: functional;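 also: luciferase signal from cell-cell fusion driven by HIV-1 clade B AD8 Env; potency is for inhibitors of fusion seen as a drop in luminescence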
[19] = ZM109 Env clade C HIV-1 fusion inhibitors, dose response, HeLa effector, CEM target cells, luciferase, cherry-pick (AID 652058); assay type: functional, cell-based
[20] = inhibitors of HIV Env-driven cell fusion, dose response, cherry-pick (AID 652057); assay type: functional, cell-based
[21] = off-target signal loss in HeLa-CEM21 co-culture – HeLa F-luc CTL cells, cherry-picked, counter-screen for HIV-1 Env fusion inhibitor project, dose response (AID 652040); assay type: functional, cell-based;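 also: potency for signal decrease marking cytotoxic or nonspecific inhibition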
[22] = Luminescence Cell-Based Dose Response HTS to Identify Activators of Luciferase Translation or Activity in H4 […] Cells. [Related pubchem assays: 1829 (Project Summary), 1814 (Primary HTS)]; assay type: functional
H4 = assay: Luminescence Cell-Based Dose Response HTS to Identify Activators of 5'UTR Stem-Loop Driven Prion Protein mRNA Translation in H4 Neuroglioblastoma Cells. [Related pubchem assays: 1829 (Project Summary), 1814 (Primary HTS)]; assay type: functional; conditions: Homo sapiens
[23] = Luminescence Cell-Based Dose Confirmation HTS to Identify Inhibitors of Platelet Dense Granule Release. [Related pubchem assays: 1663 (Primary HTS), 1678 (Summary of Project)]; assay type: functional
[24] = molecular target: Luciferin 4-monooxygenase (Photinus pyralis, UniProt P08659); assay: firefly luciferase enzyme inhibitors, dose response, biochemical, luminescence (AID 1891)
[25] = Luminescence Cell-Based Dose Confirmation HTS to Identify Activators of 5'UTR Stem-Loop Driven Alpha-Synuclein mRNA Translation in H4 Neuroglioblastoma Cells. [Related pubchem assays: 1829 (Project Summary), 1814 (Primary HTS)]; assay type: functional

T1 sequence (P98170 whole entry): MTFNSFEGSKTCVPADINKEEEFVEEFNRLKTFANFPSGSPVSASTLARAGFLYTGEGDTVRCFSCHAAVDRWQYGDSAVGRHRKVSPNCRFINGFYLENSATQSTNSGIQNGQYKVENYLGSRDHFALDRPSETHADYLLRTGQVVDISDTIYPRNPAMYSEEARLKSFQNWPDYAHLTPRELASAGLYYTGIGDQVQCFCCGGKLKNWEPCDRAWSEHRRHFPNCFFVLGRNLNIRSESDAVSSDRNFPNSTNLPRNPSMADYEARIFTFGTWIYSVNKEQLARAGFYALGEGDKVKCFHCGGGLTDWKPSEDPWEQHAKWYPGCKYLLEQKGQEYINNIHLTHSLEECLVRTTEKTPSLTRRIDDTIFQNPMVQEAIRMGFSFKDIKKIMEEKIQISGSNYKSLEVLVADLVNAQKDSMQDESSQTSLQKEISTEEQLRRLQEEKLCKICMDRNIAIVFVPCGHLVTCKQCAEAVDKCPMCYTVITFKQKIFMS

COc1ccc(C2(O)CCN(Cc3nnnn3Cc3ccc(F)cc3)CC2)cc1
CC50 [1]: > 40 µM (active)

COC(=O)c1cc2sccc2n1Cc1nc(-c2cccc(Cl)c2)oc1C
IC50 [2]: > 100 µM (not active)
IC50 [3]: > 100 µM (inactive)

O=C(Nc1ccc(Cl)cc1C(F)(F)F)c1ccc(Cl)cc1
AC50 (Cytochrome P450 1A2): 4.47 µM (inconclusive)
AC50 (Cytochrome P450 2C9 [4]): inconclusive
AC50 (Cytochrome P450 2C19): 2.24 µM (inconclusive)

O=C(/C=C/c1ccccc1)OC1CC(O)C2(O)C=CO[C@@H](OC3OC(CO)C(O)C(O)C3O)C12 (stereo partly specified)
AC50 (Cytochrome P450 3A4 [5]): 3.98 µM (inconclusive)

CCCCCc1nc2c(c3c1CCCC3)CCCC2
EC50 [6]: > 50 µM (active)

CCCCC#CC1C=CC(Oc2cc(OC)c(OC)c(OC)c2)C(CO)O1 (stereo unspecified)
AC50 (Cytochrome P450 3A4 [5]): 5.01 µM (inconclusive)

CCCOc1ccc(N2CC(C(=O)Nc3ccccn3)CC2=O)cc1 (stereo unspecified)
IC50 (cells [7]): 19.8 µM (active)

Cc1cc(O)c(C(C)(C)C)cc1Sc1cc(C(C)(C)C)c(O)cc1C
AC50 (Cytochrome P450 3A4 [5]): 3.98 µM (inconclusive)

O=C(c1ccc(N2CCN(C(=O)c3ccccc3Br)CC2)cc1)c1cccc(F)c1
IC50 [8]: > 100 µM (not active)

O=C(N/N=C/c1cc([N+](=O)[O-])ccc1O)c1cccc2ccccc12
EC50 [9]: 2.36 µM (active)
AC50 (INS1): 4.2 µM (active)
EC50 [10]: > 60 µM (not active)
EC50 (cells [11]): 20.3 µM (active)
EC50 (cells [12]): > 350 µM (not active)

CC(C)c1cccc(-c2ccc3c(c2)S(=O)(=O)c2cccc(C(=O)NCc4ccco4)c2C3=O)c1
IC50 [13]: 8.02 µM (active)

CC(C)c1c(O)ccc2c1CCC1C(C)(C)CCC[C@@]21C (stereo partly specified)
AC50 (Cytochrome P450 3A4 [5]): 25.1 µM (inconclusive)

O=C1CCCN1c1ccc(CNS(=O)(=O)c2ccc(F)cc2)cc1
EC50 [6]: > 50 µM (active)

CCSc1nc(C)cc(C)c1S(=O)(=O)c1ccccc1C
EC50 [6]: > 50 µM (active)

COc1cccc(C(=O)OCn2nnc3ccccc3c2=O)c1OC
IC50 (cells [7]): 16.2 µM (active)

Cc1cccc(NC(=O)c2onc3c2CCCC3)c1C
AC50 (Cytochrome P450 2C9 [4]): inconclusive
AC50 (Cytochrome P450 2C19): 20 µM (inconclusive)

O=C(CCCCCCCC(=O)NNC(=O)Nc1ccccc1)NNC(=O)Nc1ccccc1
IC50 [13]: 11.9 µM (active)

Cc1ccn2c(=O)nc(SCC(=O)NCc3ccccc3)nc2c1
IC50 [13]: 9.61 µM (active)

Cn1ccs/c1=N\C(=O)c1ccccc1F
IC50 (cells [7]): > 50 µM (active)

Cc1cc(O)nc(NN=C(CC(C)C)CC(C)C)n1
IC50 [2]: > 100 µM (not active)
IC50 [3]: > 100 µM (inactive)

COc1ccc(-c2coc3cc(OC)cc(OC)c3c2=O)cc1 [BIOCHANIN A, DIMETHYL ETHER]
AC50 (Cytochrome P450 3A4 [5]): 20 µM (inconclusive)

CC1(C(=O)N(c2ccccc2)C(C(=O)NC2CCCC2)c2ccccn2)CC(=O)N=C2C=CC=CN21 (stereo unspecified)
IC50 [2]: > 100 µM (not active)
IC50 [3]: > 100 µM (inactive)

Cc1ccc2[nH]c(SCc3ccc([N+](=O)[O-])cc3)nc2c1
EC50 [14]: 4.41 µM (active)
AC50 (Cytochrome P450 2C9 [15]): 3.55 µM (active)
AC50 (Cytochrome P450 1A2): 1.12 µM (active)
CC50 [16]: 13.6 µM (active)
AC50 (Cytochrome P450 2D6): 5.01 µM (active)
AC50 (Cytochrome P450 2C19): 0.794 µM (active)

NC(=NOC(=O)N1c2ccccc2Sc2ccccc21)c1ccc(Br)cc1
IC50 [13]: 6.46 µM (active)

Cc1cc(C(=O)OCC(=O)NCCC(C)C)c2ccccc2n1
AC50 (Cytochrome P450 3A4 [17]): 15.8 µM (inconclusive)
AC50 (Cytochrome P450 2C9 [4]): inconclusive

C=CCN1CC[C@]23c4c5ccc(O)c4O[C@H]2/C(=N/NC(=O)c2ccccc2)CC[C@@]3(O)[C@H]1C5 [NALOXONE BENZOYLHYDRAZONE]
AC50 (Cytochrome P450 3A4 [5]): 15.8 µM (inconclusive)

COc1ccc(C(=O)OCn2nnc3ccccc3c2=O)cc1
IC50 (cells [7]): 16.8 µM (active)

O=S(=O)(NC1CCN(Cc2ccccc2)CC1)c1cccc2cccnc12
AC50 (Cytochrome P450 2D6): 1.58 µM (inconclusive)
AC50 (Cytochrome P450 2C9 [4]): inconclusive

Cc1cc(NC(=O)CSc2c(C)[nH]c3ccccc23)no1
EC50 [14]: 5.22 µM (active)

OC1=C2C(=Nc3ccccc3NC2c2cccs2)CCC1 (stereo unspecified)
AC50 [18]: 3.83 µM (active)
AC50 [19]: 1.3 µM (active)
AC50 [20]: 2.27 µM (active)
AC50 [21]: 2.44 µM (active)

Cc1ccc(C)c(Cn2c(CO)nc3ccccc32)c1
EC50 [14]: 2.68 µM (active)

COc1ccc(S(=O)(=O)NCCC(=O)NC(C)c2ccccc2)cc1 (stereo unspecified)
AC50 (Cytochrome P450 3A4 [17]): 22.4 µM (inconclusive)
AC50 (Cytochrome P450 2D6): 14.1 µM (inconclusive)
AC50 (Cytochrome P450 2C9 [4]): inconclusive
AC50 (Cytochrome P450 2C19): 17.8 µM (inconclusive)

CC[C@@]12C(=O)N(c3cccc(F)c3)C(=O)N1[C@H](c1ccc(Br)cc1)[C@@H]1C(=O)N(C(C)(C)C)C(=O)[C@@H]12
AC50 [18]: < 0.26 µM (active)
AC50 [19]: < 0.26 µM (active)
AC50 [20]: < 0.26 µM (active)
AC50 [21]: < 0.26 µM (active)

O=C(COc1cccc2ccccc12)NNC(=O)CSCCO
IC50 [2]: > 100 µM (not active)
IC50 [3]: > 100 µM (inactive)

Cc1cc(O)nc(N=N/C(=N/Nc2ccc(O)cc2)c2ccccc2)n1
EC50 [22]: 13.1 µM (active)
EC50 (H4): 16.4 µM (active)
EC50 [23]: 4.42 µM (active)
EC50 [24]: 763 nM (active)
EC50 [25]: 11.6 µM (active)
EC50 (cells [11]): 102 µM (active)
EC50 (cells [12]): 8.27 µM (active)

Cc1ccc2c(c1)NC(=O)C(CC(=O)O)O2 (stereo unspecified)
IC50 [2]: > 100 µM (not active)
IC50 [3]: > 100 µM (inactive)

Oc1ccc(C2NCc3ccccc3-n3cccc32)cc1Cl (stereo unspecified)
EC50 [6]: > 50 µM (active)

S=C=Nc1cccc2ccccc12 [1-NAPHTHYLISOTHIOCYANATE]
AC50 (Cytochrome P450 3A4 [5]): 25.1 µM (inconclusive)

Cc1cc(Cl)c(S(=O)(=O)Nc2ccc3c(c2)OCO3)cc1OCC(=O)NC1CCCCC1
EC50 [14]: 2.06 µM (active)

COc1ccc(NC(=O)C2CCN(C(=O)c3cccs3)CC2)c(OC)c1
AC50 (Cytochrome P450 2C9 [4]): inconclusive

CCOc1ccccc1OCCOc1ccc(F)cc1
AC50 (Cytochrome P450 2D6): 22.4 µM (inconclusive)
AC50 (Cytochrome P450 2C9 [4]): inconclusive

COc1cccc(C(c2nnnn2CCc2ccccc2)N2CCN(c3ccccc3)CC2)c1OC (stereo unspecified)
EC50 [14]: 0.986 µM (active)

CCCCCCOc1ccc(CN2CCN(CC)CC2)cc1
EC50 [9]: 0.752 µM (active)
EC50 [6]: > 50 µM (active)
EC50 [10]: > 30 µM (not active)

O=C(C[n+]1cc(-c2ccccc2)n2c1CCC2)c1cccs1
EC50 [6]: > 50 µM (active)

— ChEMBL document CHEMBL1201862, “PubChem BioAssay data set” (2004)
